Assay results: patent US9708258B2, “Indole 3-carbinol derivatives” (Cadila Pharmaceuticals Ltd, priority 2013, dated 2017)

Tested on: Carrageenan acute paw edema in Wistar rats
Assay: anti-inflammatory effect in the acute paw edema model (Carrageenan) in Wistar rats
Assay type: in vivo
Details: 50 mg/kg oral, basal = 100; for paw volume, Time 1 hr: 1 hr after carrageenan; for paw volume, Time 2 hr: 2 hr after carrageenan; for paw volume, Time 3 hr: 3 hr after carrageenan; for paw volume, Time 4 hr: 4 hr after carrageenan; for paw volume, Time 5 hr: 5 hr after carrageenan; for paw volume, Time 6 hr: 6 hr after carrageenan
Description: General Procedure for Screening:
Evaluated the anti-inflammatory effect of compounds of formula-I using acute paw edema model in Wistar rats using the following procedure.
All animals will be divided into required number of groups (n=6 per group; 8-12 weeks age) on the basis of body weight. After grouping basal paw volume of all animals will be measured with the help of plethysmometer instrument followed by drug administration by oral route. After 1 hr of dosing 100 μL of 1% Carrageenan prepared in normal saline will be administered in hind paw of all animals by S.C route. After 1 hr of carrageenan dosing paw volume of all animals will be measure up to 6 hr at each 1 hr interval.

SMILES	paw volume, Time 1 hr	paw volume, Time 2 hr	paw volume, Time 3 hr	paw volume, Time 4 hr	paw volume, Time 5 hr	paw volume, Time 6 hr
CC(C)(C)OC(=O)n1cc(C(O)c2cc(F)c(F)cc2F)c2ccccc21 (stereo not drawn) [CPL-2013-156, 3-[Hydroxy-(2,4,5-trifluoro-phenyl)-methyl]indole-1-carboxylic acid tert-butyl ester]	115.2	113.62	116.25	115.73	113.69	111.56
CC(C)(C)OC(=O)n1cc(COC(=O)CCC(=O)O)c2ccccc21 [CPL-2012-136, Succinic acid mono-(1-tert-butoxycarbonyl-1H-indol-3-ylmethyl) ester]	117.26	121.86	123.85	121.57	119.72	111.76
CCC(=O)OCc1cn(C(=O)OCc2ccccc2)c2ccccc12 [CPL-2013-158, 3-Propionyloxymethyl-indole-1-carboxylic acid benzyl ester]	113.82	115.12	112.02	112.46	108.11	107.2
CCC(=O)OCc1cn(C(=O)OC(C)(C)C)c2ccccc12 [CPL-2012-139, 3-Propionyloxymethyl-indole-1-carboxylic acid tert-butyl ester]	116.73	123.68	122.72	120.63	115.55	113.42
CCCCC(=O)OCc1cn(C(=O)OC(C)(C)C)c2ccccc12 [CPL-2012-144, 3-Pentanoyloxymethyl-indole-1-carboxylic acid tert-butyl ester]	112.98	123.96	125.7	123.32	123.07	121.46
